# Data published in patent publication EP1075471B1, “INDOLYL DERIVATIVES AS SEROTONERGIC AGENTS” (Wyeth, priority 1998, dated 1999).
# Where two headings read alike, the source gives them in different places.
# Target: T1, serotonin transporter (Rattus norvegicus, UniProt P31652)
# T1 construct: frontal cortical membranes prepared from male S.D. rats; from tissue; host or cells: rat frontal cortex membranes (male Sprague-Dawley rats)
# Experiment: 3H-Paroxetine binding to assess affinity for the serotonin transporter
# Procedure: The affinity of drugs for the serotonin transporter was determined by assessing the ability of agents to displace specifically bound 3H-paroxetine binding from rat cortical membranes. […] Nonspecific binding was determined using fluoxetine.
# ^3H-Paroxetine Binding to Assess Affinity of Drugs for the Serotonin Transporter:
# Briefly, frontal cortical membranes prepared from male S.D. rats were incubated with ^3H-paroxetine (0.1 nM) for 60 min at 25°C. All tubes also contained either vehicle, test compound (one to eight concentrations), or a saturating concentration of fluoxetine (10 µM) to define […]. All reactions are terminated by the addition of ice cold Tris buffer followed by rapid filtration using a Tom Tech filtration device to separate bound from free ^3H-paroxetine.
# T1 sequence (P31652 whole entry): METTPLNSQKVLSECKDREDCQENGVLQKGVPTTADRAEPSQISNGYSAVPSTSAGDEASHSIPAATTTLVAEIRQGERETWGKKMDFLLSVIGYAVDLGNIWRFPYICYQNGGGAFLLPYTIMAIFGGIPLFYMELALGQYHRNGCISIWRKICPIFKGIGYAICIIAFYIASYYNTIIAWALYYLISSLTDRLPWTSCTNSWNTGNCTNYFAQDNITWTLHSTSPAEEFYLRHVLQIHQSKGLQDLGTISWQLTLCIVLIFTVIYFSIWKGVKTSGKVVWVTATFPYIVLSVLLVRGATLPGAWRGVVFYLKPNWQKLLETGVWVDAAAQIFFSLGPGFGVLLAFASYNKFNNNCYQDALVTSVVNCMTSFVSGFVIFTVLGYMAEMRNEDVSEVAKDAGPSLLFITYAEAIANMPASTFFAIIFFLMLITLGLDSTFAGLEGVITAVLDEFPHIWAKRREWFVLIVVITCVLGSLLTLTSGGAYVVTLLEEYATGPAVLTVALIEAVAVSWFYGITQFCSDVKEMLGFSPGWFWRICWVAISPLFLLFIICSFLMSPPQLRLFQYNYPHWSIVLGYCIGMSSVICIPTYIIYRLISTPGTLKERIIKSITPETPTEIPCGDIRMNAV
SMILES,Ki [nM],"Ki (read-out: Inhibition of [3H]-Paroxetine binding Ki, compounds of formula (1), rat frontal cortical membranes, 3H-paroxetine 0.1 nM, 60 min at 25°C, nonspecific binding with fluoxetine 10 µM) [nM]"
"Cc1nc2ccccc2n1CC(O)CN1CC=C(c2c[nH]c3ccccc23)CC1 (stereo not shown) [Example 13, 1-[4-(1H-Indol-3-yl)-3,6-dihydro-2H-pyridin-1-yl]-3-(2-methyl-benzoimidazol-1-yl)-propan-2-ol]",0.4,
"OC(CN1CC=C(c2c[nH]c3ccccc23)CC1)Cn1ccc2ccccc21 (stereo not shown) [Example 12, 1-Indol-1-yl-3-[4-(1H-indol-3-yl)-3,6-dihydro-2H-pyridin-1-yl]-propan-2-ol]",,1.7
"O[C@@H](CN1CC=C(c2c[nH]c3ccccc23)CC1)Cn1ccc2c(F)cccc21 [Example 15, (2S)-1-(4-Fluoro-indol-1-yl)-3-[4-(1H-indol-3-yl)-3,6-dihydro-2H-pyridin-1-yl]-propan-2-ol]",0.3,
"COc1cccc2c1ccn2C[C@@H](O)CN1CC=C(c2c[nH]c3ccccc23)CC1 [Example 14, (2S)-1-[4-(1H-Indol-3-yl)-3,6-dihydro-2H-pyridin-1-yl]-3-(4-methoxy-indol-1-yl)-propan-2-ol]",0.03,
"OC(CN1CC=C(c2c[nH]c3ccccc23)CC1)Cn1ccc2c(F)cccc21 (stereo not shown) [Example 10, 1-(4-Fluoro-indol-1-yl)-3-[4-(1H-indol-3-yl)-3,6-dihydro-2H-pyridin-1-yl]-propan-2-ol]",0.01,
"COc1cccc2c1ccn2CC(O)CN1CC=C(c2c[nH]c3ccccc23)CC1 (stereo not shown) [Example 11, 1-[4-(1H-Indol-3-yl)-3,6-dihydro-2H-pyridin-1-yl]-3-(4-methoxy-indol-1-yl)-propan-2-ol]",0.04,
"OC(CN1CC=C(c2c[nH]c3ccccc23)CC1)Cn1ccc2cc(F)ccc21 (stereo not shown) [Example 8, 1-(5-Fluoro-indol-1-yl)-3-[4-(1H-indol-3-yl)-3,6-dihydro-2H-pyridin-1-yl]-propan-2-ol]",1.4,
